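Cultured in 96-well plates, cells were exposed to test compound for 48 hours across five concentrations. Abbreviation: GI50, concentration required for 50% inhibition of growth.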 Active and inactive are the calls of the source. Cut-off read from the data, not from the text of the source: active = GI50 up to about 1.1 µM and inactive = higher.
Legend:
Assay in all cases: NCI tumour cell line growth inhibition, 48 h
M14 = tested on: M14
SNB-19 = tested on: SNB-19
SF-539 = tested on: SF-539
T47D = tested on: T47D
COLO 205 = tested on: COLO 205
UO-31 = tested on: UO-31
OVCAR-4 = tested on: OVCAR-4
SW-620 = tested on: SW-620
ACHN = tested on: ACHN
MDA-MB-231 = tested on: MDA-MB-231
SF-268 = tested on: SF-268
HCT-15 = tested on: HCT-15
DU-145 = tested on: DU-145
SK-MEL-5 = tested on: SK-MEL-5
MDA-MB-435 = tested on: MDA-MB-435
EKVX = tested on: EKVX
MOLT-4 = tested on: MOLT-4
SF-295 = tested on: SF-295
NCI-H23 = tested on: NCI-H23
LOX IMVI = tested on: LOX IMVI
HCC 2998 = tested on: HCC 2998
PC-3 = tested on: PC-3
SK-OV-3 = tested on: SK-OV-3
CAKI-1 = tested on: CAKI-1
OVCAR-5 = tested on: OVCAR-5
IGROV-1 = tested on: IGROV-1
K562 = tested on: K562
HOP-62 = tested on: HOP-62
RXF 393 = tested on: RXF 393
NCI/ADR-RES = tested on: NCI/ADR-RES
HCT-116 = tested on: HCT-116
OVCAR-8 = tested on: OVCAR-8
786-0 = tested on: 786-0
A549 = tested on: A549
SK-MEL-2 = tested on: SK-MEL-2
RPMI-8226 = tested on: RPMI-8226
TK-10 = tested on: TK-10
HT-29 = tested on: HT-29
NCI-H226 = tested on: NCI-H226
UACC-257 = tested on: UACC-257
OVCAR-3 = tested on: OVCAR-3
Malme-3M = tested on: Malme-3M
BT-549 = tested on: BT-549
SK-MEL-28 = tested on: SK-MEL-28
KM12 = tested on: KM12
SR = tested on: SR
NCI-H460 = tested on: NCI-H460
SN12C = tested on: SN12C
NCI-H522 = tested on: NCI-H522
SNB-75 = tested on: SNB-75
MDA-N = tested on: MDA-N
A498 = tested on: A498
U-251 = tested on: U-251
CCRF-CEM = tested on: CCRF-CEM
HL-60 = tested on: HL-60
MCF7 = tested on: MCF7
Hs-578T = tested on: Hs-578T
HOP-92 = tested on: HOP-92

`CC12CCC([C@H](Nc3cc(C(F)(F)F)cc(C(F)(F)F)c3)C1=O)C2(C)C` (some centres not stated) was tested, and the GI50 (M14) was > 100 µM (inactive), the GI50 (SNB-19) was > 100 µM (inactive) and the GI50 (SF-539) was > 100 µM (inactive). For the same molecule, the GI50 (T47D) was > 100 µM (inactive), the GI50 (COLO 205) was > 100 µM (inactive) and the GI50 (UO-31) was > 100 µM (inactive). For the same molecule, the GI50 (OVCAR-4) was > 100 µM (inactive), the GI50 (SW-620) was > 100 µM (inactive) and the GI50 (ACHN) was > 100 µM (inactive). The GI50 (MDA-MB-231) was > 100 µM (inactive), the GI50 (SF-268) was > 100 µM (inactive) and the GI50 (HCT-15) was > 100 µM. For the same molecule, the GI50 (DU-145) was > 100 µM (inactive), the GI50 (SK-MEL-5) was > 100 µM (inactive) and the GI50 (MDA-MB-435) was > 100 µM (inactive). The GI50 (EKVX) was > 100 µM (inactive), the GI50 (MOLT-4) was > 100 µM (inactive) and the GI50 (SF-295) was 37.4 µM (inactive). For the same molecule, the GI50 (NCI-H23) was > 100 µM (inactive), the GI50 (LOX IMVI) was > 100 µM (inactive) and the GI50 (HCC 2998) was > 100 µM (inactive). The GI50 (PC-3) was > 100 µM (inactive), the GI50 (SK-OV-3) was > 100 µM (inactive) and the GI50 (CAKI-1) was > 100 µM (inactive). The GI50 (OVCAR-5) was > 100 µM (inactive), the GI50 (IGROV-1) was 47.3 µM (inactive) and the GI50 (K562) was > 100 µM (inactive). For the same molecule, the GI50 (HOP-62) was 33.7 µM (inactive), the GI50 (RXF 393) was 0.0162 µM (active) and the GI50 (NCI/ADR-RES) was > 100 µM (inactive). The GI50 (HCT-116) was > 100 µM (inactive), the GI50 (OVCAR-8) was > 100 µM (inactive) and the GI50 (786-0) was > 100 µM (inactive). The GI50 (A549) was > 100 µM (inactive), the GI50 (SK-MEL-2) was > 100 µM (inactive) and the GI50 (RPMI-8226) was 0.158 µM (active). For the same molecule, the GI50 (TK-10) was > 100 µM (inactive), the GI50 (HT-29) was 84.3 µM (inactive) and the GI50 (NCI-H226) was > 100 µM (inactive). The GI50 (UACC-257) was > 100 µM (inactive), the GI50 (OVCAR-3) was 16.8 µM (inactive) and the GI50 (Malme-3M) was > 100 µM (inactive). The GI50 (BT-549) was > 100 µM (inactive), the GI50 (SK-MEL-28) was > 100 µM (inactive) and the GI50 (KM12) was > 100 µM (inactive). For the same molecule, the GI50 (SR) was > 100 µM (inactive).

In the case of `CN(C)CCNC(=O)c1cc(NC(=O)c2cc(NC(=O)CC/C=C3/[C@@H]4CC[C@H]3N=N4)cn2C)cn1C`, the GI50 (M14) is reported as > 100 µM (inactive), the GI50 (SNB-19) is reported as > 100 µM (inactive) and the GI50 (NCI-H460) is reported as > 100 µM (inactive). For the same molecule, the GI50 (SF-539) was > 100 µM (inactive), the GI50 (COLO 205) was > 100 µM (inactive) and the GI50 (SN12C) was > 100 µM (inactive). For the same molecule, the GI50 (NCI-H522) was > 100 µM (inactive), the GI50 (UO-31) was > 100 µM (inactive) and the GI50 (SNB-75) was > 100 µM (inactive). For the same molecule, the GI50 (OVCAR-4) was > 100 µM (inactive), the GI50 (SW-620) was > 100 µM (inactive) and the GI50 (MDA-N) was > 100 µM (inactive). The GI50 (ACHN) was > 100 µM (inactive), the GI50 (MDA-MB-231) was > 100 µM (inactive) and the GI50 (SF-268) was > 100 µM (inactive). The GI50 (HCT-15) was > 100 µM, the GI50 (DU-145) was > 100 µM (inactive) and the GI50 (SK-MEL-5) was > 100 µM (inactive). For the same molecule, the GI50 (MDA-MB-435) was > 100 µM (inactive), the GI50 (EKVX) was > 100 µM (inactive) and the GI50 (MOLT-4) was > 100 µM (inactive). For the same molecule, the GI50 (SF-295) was > 100 µM (inactive), the GI50 (NCI-H23) was > 100 µM (inactive) and the GI50 (A498) was > 100 µM (inactive). The GI50 (LOX IMVI) was > 100 µM (inactive), the GI50 (HCC 2998) was > 100 µM (inactive) and the GI50 (PC-3) was > 100 µM (inactive). The GI50 (U-251) was > 100 µM (inactive), the GI50 (CCRF-CEM) was > 100 µM (inactive) and the GI50 (CAKI-1) was > 100 µM (inactive). For the same molecule, the GI50 (HL-60) was > 100 µM (inactive), the GI50 (OVCAR-5) was > 100 µM (inactive) and the GI50 (MCF7) was > 100 µM (inactive). The GI50 (IGROV-1) was > 100 µM (inactive), the GI50 (K562) was > 100 µM (inactive) and the GI50 (HOP-62) was > 100 µM (inactive). For the same molecule, the GI50 (RXF 393) was > 100 µM (inactive), the GI50 (NCI/ADR-RES) was > 100 µM (inactive) and the GI50 (HCT-116) was > 100 µM (inactive). The GI50 (OVCAR-8) was > 100 µM (inactive), the GI50 (786-0) was > 100 µM (inactive) and the GI50 (A549) was > 100 µM (inactive). For the same molecule, the GI50 (SK-MEL-2) was > 100 µM (inactive), the GI50 (Hs-578T) was > 100 µM (inactive) and the GI50 (RPMI-8226) was > 100 µM (inactive). For the same molecule, the GI50 (TK-10) was > 100 µM (inactive), the GI50 (HT-29) was > 100 µM (inactive) and the GI50 (NCI-H226) was > 100 µM (inactive). The GI50 (UACC-257) was > 100 µM (inactive), the GI50 (OVCAR-3) was > 100 µM (inactive) and the GI50 (Malme-3M) was 70.3 µM (inactive). The GI50 (BT-549) was > 100 µM (inactive), the GI50 (SK-MEL-28) was > 100 µM (inactive) and the GI50 (HOP-92) was > 100 µM (inactive). For the same molecule, the GI50 (KM12) was > 100 µM (inactive) and the GI50 (SR) was > 100 µM (inactive).
